According to ChEMBL document CHEMBL1155591, “New anabaenopeptins, potent carboxypeptidase-A inhibitors from the cyanobacterium Aphanizomenon flos-aquae” (J Nat Prod, 2000):
The source made the active and inactive calls. The calls are words filed in the database; no cut-off is given here. Starred links: 1 amine or outer side, 2 acyl side, 3 side chain; linkers in the order of their positions; H or OH if unused. Positions of bridges follow the written chain, without caps; N, C: chain ends. Non-standard residues stand in square brackets, D forms with d. Residues, ends and D or L forms follow the SMILES beside them. NMehTyr = CN[C@@H](CCc1ccc(O)cc1)C(=O)O; hTyr = N[C@@H](CCc1ccc(O)cc1)C(=O)O; NMeA = CN[C@@H](C)C(=O)O; CO = O=C([*:1])[*:2]

Key:
[1] = target: T1, Carboxypeptidase A1 (Homo sapiens) (UniProt P15085); test: Inhibition of carboxypeptidase A at 10 ug/ml
T1 sequence (whole entry): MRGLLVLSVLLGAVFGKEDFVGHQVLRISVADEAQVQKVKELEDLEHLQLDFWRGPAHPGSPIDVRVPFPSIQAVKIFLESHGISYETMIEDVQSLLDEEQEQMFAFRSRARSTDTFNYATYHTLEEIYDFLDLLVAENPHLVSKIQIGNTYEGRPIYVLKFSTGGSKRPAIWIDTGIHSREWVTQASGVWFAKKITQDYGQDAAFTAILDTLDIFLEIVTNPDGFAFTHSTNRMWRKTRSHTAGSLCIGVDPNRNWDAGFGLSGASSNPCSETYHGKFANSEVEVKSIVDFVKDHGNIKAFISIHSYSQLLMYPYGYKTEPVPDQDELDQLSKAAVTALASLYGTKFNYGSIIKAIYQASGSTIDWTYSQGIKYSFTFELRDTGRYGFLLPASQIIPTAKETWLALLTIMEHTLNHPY

[2] = target: T2, Carboxypeptidase A1 (Homo sapiens, UniProt P15085); test: Inhibition of carboxypeptidase A
T2 sequence (P15085 whole entry): T1 sequence (whole entry)

| SMILES | Activity [1] | IC50 [2] [nM] |
| --- | --- | --- |
| CC(C)[C@@H]1NC(=O)[C@H](NC(=O)N[C@@H](CCCNC(=N)N)C(=O)O)CCCCNC(=O)[C@H](Cc2ccccc2)NC(=O)[C@H](C)N(C)C(=O)[C@H](CCc2ccc(O)cc2)N(C)C1=O | inactive |  |
| CC[C@H](C)[C@@H]1NC(=O)[C@H](NC(=O)N[C@@H](CCCNC(=N)N)C(=O)O)CCCCNC(=O)[C@H](Cc2ccccc2)NC(=O)[C@H](C)N(C)C(=O)[C@H](CCc2ccc(O)cc2)NC1=O ({Arg-CO}-[dK]I[hTyr][NMeA]F; lactam 1-C) | inactive |  |
| CC(C)[C@@H]1NC(=O)[C@H](NC(=O)N[C@@H](CCCNC(=N)N)C(=O)O)CCCCNC(=O)[C@H](Cc2ccccc2)NC(=O)[C@H](C)N(C)C(=O)[C@H](CCc2ccc(O)cc2)NC1=O ({Arg-CO}-[dK]V[hTyr][NMeA]F; lactam 1-C) | inactive |  |
| CC[C@H](C)[C@@H]1NC(=O)[C@H](NC(=O)N[C@@H](Cc2ccc(O)cc2)C(=O)O)CCCCNC(=O)[C@H]([C@@H](C)CC)NC(=O)[C@H](CCc2ccc(O)cc2)N(C)C(=O)[C@H](CCc2ccc(O)cc2)NC1=O [ANABAENOPEPTIN G] ({Tyr-CO}-[dK]I[hTyr][NMehTyr]I; lactam 1-C) |  | 7.53 |
| CC[C@H](C)[C@@H]1NC(=O)[C@H](NC(=O)N[C@@H](CCCNC(=N)N)C(=O)O)CCCCNC(=O)[C@H]([C@@H](C)CC)NC(=O)[C@H](CCc2ccc(O)cc2)N(C)C(=O)[C@H](CCc2ccc(O)cc2)NC1=O [ANABAENOPEPTIN H] ({Arg-CO}-[dK]I[hTyr][NMehTyr]I; lactam 1-C) |  | 3680 |
| CC[C@H](C)[C@H](NC(=O)N[C@@H]1CCCCNC(=O)[C@H](CC(C)C)NC(=O)[C@H](C)N(C)C(=O)[C@H](CCc2ccc(O)cc2)NC(=O)[C@H](C(C)C)NC1=O)C(=O)O [ANABAENOPEPTIN I] ({Ile-CO}-[dK]V[hTyr][NMeA]L; lactam 1-C) |  | 6.84 |
| CC[C@H](C)[C@H](NC(=O)N[C@@H]1CCCCNC(=O)[C@H](Cc2ccccc2)NC(=O)[C@H](C)N(C)C(=O)[C@H](CCc2ccc(O)cc2)NC(=O)[C@H](C(C)C)NC1=O)C(=O)O [ANABAENOPEPTIN J] ({Ile-CO}-[dK]V[hTyr][NMeA]F; lactam 1-C) |  | 9.57 |
| CC[C@H](C)[C@H](NC(=O)N[C@@H]1CCCCNC(=O)[C@H]([C@@H](C)CC)NC(=O)[C@H](CCc2ccc(O)cc2)N(C)C(=O)[C@H](CCc2ccc(O)cc2)NC(=O)[C@H](C(C)C)NC1=O)C(=O)O [ANABAENOPEPTIN T] ({Ile-CO}-[dK]V[hTyr][NMehTyr]I; lactam 1-C) |  | 25.4 |
